The values that follow come from ChEMBL document CHEMBL1151485, “Glyco-S-nitrosothiols, a novel class of no donor compounds” (Bioorg Med Chem Lett, 1996).

Each structure is given as a SMILES string. ≈ marks a conversion by molar mass, not a printed value. A value given as a limit tells only on which side of the number the result lay.

Series [1] in a line: Compound was evaluated for its stability in phosphate buffer in presence of EDTA at pH 7.4. The settings on record: phosphate buffer with EDTA. The format is physicochemical.
Series [2] is described as follows: Compound was evaluated for its stability in phosphate buffer in absence of EDTA at pH 7.4. The format is physicochemical. To be noted: phosphate buffer without EDTA.
The nature of series [3]: Solubility of compound in 50 mM sodium phosphate buffer at room temperature. It counts as physicochemical. To be noted: read-out: S.
Series [4] can be described thus: Half-life in phosphate buffer at pH 7 and 37 degree C. The format is ADME.

As to `CC(=O)NC(C(=O)NC1OC(CO)C(O)C(O)C1O)C(C)(C)SN=O` (stereo not drawn), the half-life (usually the time needed for the level to fall by half in the phase considered) is 28.5 h in series [1] and 30.2 h in series [2]. Further, the solubility in series [3] was above 1000 mg/mL.
For `CC(=O)NC(C(=O)NC1C(O)OC(CO)C(O)C1O)C(C)(C)SN=O` (stereo not drawn), in that order: 27.5 h, 27.4 h and above 1000 mg/mL.
Consider `CC(=O)N[C@@H](C(=O)O)C(C)(C)SN=O`, for which the half-life is 15.9 h in series [1], 10.3 h in series [2] and 5 h in series [4]. For the same compound, the solubility in series [3] was found to be 2 mg/mL (≈ 9.08 mM).
In the case of `COC1OC(CNC(=O)C(NC(C)=O)C(C)(C)SN=O)C(O)C(O)C1O` (stereo not drawn), the half-life is 30.2 h in series [1] and 28.2 h in series [2]. For the same compound, the solubility in series [3] is above 1000 mg/mL.
